According to PubChem BioAssay (NCI):
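Results reflect a 48-hour exposure of cells in 96-well plates to compound at five concentrations. GI50: concentration for 50% inhibition of growth. Definition used: TGI = concentration required for complete inhibition of growth.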

Columns and labels:
Experiment in all cases: growth of human tumour cells (NCI), 48 h
SK-MEL-28 melanoma = tested on: SK-MEL-28 melanoma
CCRF-CEM leukemia = tested on: CCRF-CEM leukemia
MCF7 breast = tested on: MCF7 breast
DU-145 prostate = tested on: DU-145 prostate
SK-OV-3 ovarian = tested on: SK-OV-3 ovarian
NCI-H522 lung = tested on: NCI-H522 lung
M14 melanoma = tested on: M14 melanoma
MDA-MB-468 breast = tested on: MDA-MB-468 breast
SK-MEL-2 melanoma = tested on: SK-MEL-2 melanoma
OVCAR-5 ovarian = tested on: OVCAR-5 ovarian
COLO 205 colon = tested on: COLO 205 colon
EKVX NSCLC = tested on: EKVX NSCLC
KM12 colon = tested on: KM12 colon
SF-295 CNS = tested on: SF-295 CNS
SW-620 colon = tested on: SW-620 colon
A498 renal = tested on: A498 renal
HS 578T breast = tested on: HS 578T breast
U251 CNS = tested on: U251 CNS
SK-MEL-5 melanoma = tested on: SK-MEL-5 melanoma
UO-31 renal = tested on: UO-31 renal
NCI-H23 lung = tested on: NCI-H23 lung
NCI-H460 lung = tested on: NCI-H460 lung
UACC-257 melanoma = tested on: UACC-257 melanoma
HCT-15 colon = tested on: HCT-15 colon
OVCAR-8 ovarian = tested on: OVCAR-8 ovarian
SNB-75 CNS = tested on: SNB-75 CNS
HOP-62 NSCLC = tested on: HOP-62 NSCLC
786-0 renal = tested on: 786-0 renal
SF-539 CNS = tested on: SF-539 CNS
OVCAR-4 ovarian = tested on: OVCAR-4 ovarian
SF-268 CNS = tested on: SF-268 CNS
IGROV1 ovarian = tested on: IGROV1 ovarian
CAKI-1 renal = tested on: CAKI-1 renal
SN12C renal = tested on: SN12C renal
PC-3 prostate = tested on: PC-3 prostate
LOX IMVI melanoma = tested on: LOX IMVI melanoma
RXF 393 renal = tested on: RXF 393 renal
UACC-62 melanoma = tested on: UACC-62 melanoma
BT-549 breast = tested on: BT-549 breast
K-562 leukemia = tested on: K-562 leukemia
T-47D breast = tested on: T-47D breast
HL-60(TB) leukemia = tested on: HL-60(TB) leukemia
TK-10 renal = tested on: TK-10 renal
MDA-MB-231 breast = tested on: MDA-MB-231 breast
HOP-92 NSCLC = tested on: HOP-92 NSCLC
SR leukemia = tested on: SR leukemia
MOLT-4 leukemia = tested on: MOLT-4 leukemia
MALME-3M melanoma = tested on: MALME-3M melanoma
NCI/ADR-RES ovarian = tested on: NCI/ADR-RES ovarian
NCI-H226 lung = tested on: NCI-H226 lung
HT29 colon = tested on: HT29 colon
MDA-MB-435 = tested on: MDA-MB-435
OVCAR-3 ovarian = tested on: OVCAR-3 ovarian
A549 NSCLC = tested on: A549 NSCLC
HCC-2998 colon = tested on: HCC-2998 colon
SNB-19 CNS = tested on: SNB-19 CNS
HCT-116 colon = tested on: HCT-116 colon
RPMI-8226 leukemia = tested on: RPMI-8226 leukemia
ACHN renal = tested on: ACHN renal

## O=C(c1ccc(Cl)cc1)C1[C@H](c2ccccc2Cl)[C@@H](c2ccccc2)NC12C(=O)Nc1ccc(Br)cc12 (some centres undefined)
SK-MEL-28 melanoma
  GI50: 16 µM
  TGI: 29.7 µM
CCRF-CEM leukemia
  GI50: 24.4 µM
  TGI: 68.2 µM
MCF7 breast
  GI50: 15.7 µM
  TGI: 37.3 µM
DU-145 prostate
  GI50: 19.2 µM
  TGI: 40.5 µM
SK-OV-3 ovarian
  GI50: 24.3 µM
  TGI: 70.2 µM
NCI-H522 lung
  GI50: 14.1 µM
  TGI: 29.9 µM
M14 melanoma
  GI50: 15.3 µM
  TGI: 29.3 µM
MDA-MB-468 breast
  GI50: 11 µM
  TGI: 26.9 µM
SK-MEL-2 melanoma
  GI50: 15.9 µM
  TGI: 31.6 µM
OVCAR-5 ovarian
  GI50: 14.9 µM
  TGI: 29.6 µM
COLO 205 colon
  GI50: 17.4 µM
  TGI: 31.6 µM
EKVX NSCLC
  GI50: 16.6 µM
  TGI: 44 µM
KM12 colon
  GI50: 19.7 µM
  TGI: 44.7 µM
SF-295 CNS
  GI50: 16.5 µM
  TGI: 32.4 µM
SW-620 colon
  GI50: 16.1 µM
  TGI: 31.4 µM
A498 renal
  GI50: 19.9 µM
  TGI: 46.7 µM
HS 578T breast
  GI50: 16.9 µM
  TGI: 42.7 µM
U251 CNS
  GI50: 16.1 µM
  TGI: 29.9 µM
SK-MEL-5 melanoma
  GI50: 16.1 µM
  TGI: 29.8 µM
UO-31 renal
  GI50: 13.4 µM
  TGI: 30.6 µM
NCI-H23 lung
  GI50: 14.9 µM
  TGI: 31.1 µM
NCI-H460 lung
  GI50: 17.7 µM
  TGI: 35 µM
UACC-257 melanoma
  GI50: 17.6 µM
  TGI: 37.8 µM
HCT-15 colon
  GI50: 15.8 µM
  TGI: 30.5 µM
OVCAR-8 ovarian
  GI50: 17.7 µM
  TGI: 36.6 µM
SNB-75 CNS
  GI50: 10.5 µM
  TGI: 35 µM
HOP-62 NSCLC
  GI50: 15 µM
  TGI: 30 µM
786-0 renal
  GI50: 16.6 µM
  TGI: 34.4 µM
SF-539 CNS
  GI50: 16.5 µM
  TGI: 31.8 µM
OVCAR-4 ovarian
  GI50: 18.3 µM
  TGI: 49.7 µM
SF-268 CNS
  GI50: 16.6 µM
  TGI: 38.7 µM
IGROV1 ovarian
  GI50: 17.1 µM
  TGI: 41 µM
CAKI-1 renal
  GI50: 14.8 µM
  TGI: 33.9 µM
SN12C renal
  GI50: 15 µM
  TGI: 28.2 µM
PC-3 prostate
  GI50: 15.7 µM
  TGI: 37.5 µM
LOX IMVI melanoma
  GI50: 15.2 µM
  TGI: 28.5 µM
RXF 393 renal
  GI50: 14.1 µM
  TGI: 28.2 µM
UACC-62 melanoma
  GI50: 13.7 µM
  TGI: 27 µM
BT-549 breast
  GI50: 14.5 µM
  TGI: 28 µM
K-562 leukemia
  GI50: 26.8 µM
  TGI: 88.9 µM
T-47D breast
  GI50: 15.2 µM
  TGI: 30.3 µM
HL-60(TB) leukemia
  GI50: 20.8 µM
  TGI: 49.1 µM
TK-10 renal
  GI50: 18.3 µM
  TGI: 50.6 µM
MDA-MB-231 breast
  GI50: 15.6 µM
  TGI: 29.4 µM
HOP-92 NSCLC
  GI50: 15.6 µM
  TGI: 31 µM
SR leukemia
  GI50: 16.5 µM
  TGI: 41.7 µM
MOLT-4 leukemia
  GI50: 21.2 µM
  TGI: 61.7 µM
MALME-3M melanoma
  GI50: 15.5 µM
  TGI: 29 µM
NCI/ADR-RES ovarian
  GI50: 15.5 µM
  TGI: 30.7 µM
NCI-H226 lung
  GI50: 14.4 µM
  TGI: 29.3 µM
HT29 colon
  GI50: 17.9 µM
  TGI: 37 µM
MDA-MB-435
  GI50: 15.2 µM
  TGI: 29.6 µM
OVCAR-3 ovarian
  GI50: 15.6 µM
  TGI: 32.4 µM
A549 NSCLC
  GI50: 17.5 µM
  TGI: 42.3 µM
HCC-2998 colon
  GI50: 15.5 µM
  TGI: 31.1 µM
SNB-19 CNS
  GI50: 24.8 µM
  TGI: 78.3 µM
HCT-116 colon
  GI50: 14.4 µM
  TGI: 27.6 µM
RPMI-8226 leukemia
  GI50: 26 µM
  TGI: 84.5 µM
ACHN renal
  GI50: 22.8 µM
  TGI: 69.5 µM

## COc1cccc(/C=C/C(=O)c2ccc(OC)c(S(N)(=O)=O)c2)c1
SK-MEL-28 melanoma
  GI50: 9.04 µM
  TGI: 21.1 µM
CCRF-CEM leukemia
  GI50: 2.51 µM
  TGI: 6.23 µM
MCF7 breast
  GI50: 2.87 µM
  TGI: 12.5 µM
DU-145 prostate
  GI50: 5.73 µM
  TGI: 18.1 µM
SK-OV-3 ovarian
  GI50: 10.1 µM
  TGI: 21.9 µM
NCI-H522 lung
  GI50: 2.48 µM
  TGI: 8.39 µM
M14 melanoma
  GI50: 4.42 µM
  TGI: 17.7 µM
MDA-MB-468 breast
  GI50: 1.99 µM
  TGI: 7.17 µM
SK-MEL-2 melanoma
  GI50: 14 µM
  TGI: 27.3 µM
OVCAR-5 ovarian
  GI50: 2.61 µM
  TGI: 10.8 µM
COLO 205 colon
  GI50: 2.93 µM
  TGI: 11 µM
EKVX NSCLC
  GI50: 8.05 µM
  TGI: 20.9 µM
KM12 colon
  GI50: 2.12 µM
  TGI: 5.11 µM
SF-295 CNS
  GI50: 2.9 µM
  TGI: 12.6 µM
SW-620 colon
  GI50: 3.16 µM
  TGI: 12 µM
A498 renal
  GI50: 14.3 µM
  TGI: 28 µM
HS 578T breast
  GI50: 15.5 µM
  TGI: 50.6 µM
U251 CNS
  GI50: 2.5 µM
  TGI: 9.83 µM
SK-MEL-5 melanoma
  GI50: 5.23 µM
  TGI: 18 µM
UO-31 renal
  GI50: 2.03 µM
  TGI: 9.93 µM
NCI-H23 lung
  GI50: 4.66 µM
  TGI: 16.9 µM
NCI-H460 lung
  GI50: 3.45 µM
  TGI: 13.8 µM
UACC-257 melanoma
  GI50: 10.2 µM
  TGI: 22.5 µM
HCT-15 colon
  GI50: 1.27 µM
  TGI: 3.34 µM
OVCAR-8 ovarian
  GI50: 2.96 µM
  TGI: 12 µM
HOP-62 NSCLC
  GI50: 2.7 µM
  TGI: 10.2 µM
786-0 renal
  GI50: 2.9 µM
  TGI: 11 µM
SF-539 CNS
  GI50: 1.96 µM
  TGI: 4.56 µM
OVCAR-4 ovarian
  GI50: 4.87 µM
  TGI: 20.1 µM
SF-268 CNS
  GI50: 4.85 µM
  TGI: 18.9 µM
IGROV1 ovarian
  GI50: 2.98 µM
  TGI: 12.5 µM
CAKI-1 renal
  GI50: 4.16 µM
  TGI: 16.1 µM
SN12C renal
  GI50: 2.74 µM
  TGI: 10.9 µM
PC-3 prostate
  GI50: 5.25 µM
  TGI: 18.4 µM
LOX IMVI melanoma
  GI50: 1.64 µM
  TGI: 3.47 µM
RXF 393 renal
  GI50: 3.39 µM
  TGI: 15.1 µM
UACC-62 melanoma
  GI50: 4.16 µM
  TGI: 16.9 µM
BT-549 breast
  GI50: 2.52 µM
  TGI: 8.85 µM
K-562 leukemia
  GI50: 2.12 µM
  TGI: 6.4 µM
T-47D breast
  GI50: 2.97 µM
  TGI: 14.2 µM
HL-60(TB) leukemia
  GI50: 1.88 µM
  TGI: 5.18 µM
TK-10 renal
  GI50: 2.81 µM
  TGI: 13.1 µM
MDA-MB-231 breast
  GI50: 3.8 µM
  TGI: 13.6 µM
HOP-92 NSCLC
  GI50: 6.37 µM
  TGI: 20.2 µM
SR leukemia
  GI50: 1.26 µM
  TGI: 4.09 µM
MOLT-4 leukemia
  GI50: 2.12 µM
  TGI: 5.16 µM
MALME-3M melanoma
  GI50: 12.4 µM
  TGI: 25.1 µM
NCI/ADR-RES ovarian
  GI50: 2.83 µM
  TGI: 9.24 µM
NCI-H226 lung
  GI50: 2.72 µM
  TGI: 11.1 µM
HT29 colon
  GI50: 1.91 µM
  TGI: 4.05 µM
MDA-MB-435
  GI50: 4.66 µM
  TGI: 16.5 µM
OVCAR-3 ovarian
  GI50: 2.9 µM
  TGI: 10.8 µM
A549 NSCLC
  GI50: 2.64 µM
  TGI: 11.5 µM
HCC-2998 colon
  GI50: 2.88 µM
  TGI: 12.1 µM
SNB-19 CNS
  GI50: 4.82 µM
  TGI: 17.2 µM
HCT-116 colon
  GI50: 1.59 µM
  TGI: 3.31 µM
RPMI-8226 leukemia
  GI50: 2.54 µM
  TGI: 7.24 µM
ACHN renal
  GI50: 1.85 µM
  TGI: 3.7 µM
